Patent US11472795B2, “1H-indazole-3-carboxamide compounds as glycogen synthase kinase 3 beta inhibitors” (AZIENDE CHIMICHE RIUNITE ANGELINI FRANCESCO—A.C.R.A.F. …, priority 2018, dated 2022)

Columns and labels:
human GSK-3β = human GSK-3β (Homo sapiens (Human), UniProt P49841); assay: Test I - Activity on human GSK-3β (LANCE substrate phosphorylation); assay type: biochemical; settings: human recombinant GSK-3β, 90 minutes at 22° C., five concentrations 10 μM to 1 nM, duplicate; read-out: GSK-33 IC50
Method: Human recombinant enzyme GSK-3β was incubated for 90 minutes at 22° C. in the presence of compounds or vehicle in a reaction buffer containing ATP plus 100 nM unphosphorylated specific substrate peptide (Ulight-[…]-amide). Substrate phosphorylation was measured by LANCE technology (PerkinElmer, CT, USA).

hERG ion channel = hERG ion channel (Homo sapiens (Human), UniProt Q12809)
Method: (2006), Expert Opin. Ther. Targets, 10 (2): 230-241 using the recombinant human cell line CHO-K1, which stably expresses the hERG ion channel.
The degree of inhibition (%) was obtained by measuring the tail current amplitude, which is induced by a one second test pulse to −40 mV after a two second pulse to +20 mV, before and after drug incubation (the difference current was normalized to control and multiplied by 100 to obtain the percent of inhibition). […] The concentration response relationship of each compound was constructed from the percentage reductions of current amplitude by sequential concentrations.

Sequence of hERG ion channel (Q12809 whole entry): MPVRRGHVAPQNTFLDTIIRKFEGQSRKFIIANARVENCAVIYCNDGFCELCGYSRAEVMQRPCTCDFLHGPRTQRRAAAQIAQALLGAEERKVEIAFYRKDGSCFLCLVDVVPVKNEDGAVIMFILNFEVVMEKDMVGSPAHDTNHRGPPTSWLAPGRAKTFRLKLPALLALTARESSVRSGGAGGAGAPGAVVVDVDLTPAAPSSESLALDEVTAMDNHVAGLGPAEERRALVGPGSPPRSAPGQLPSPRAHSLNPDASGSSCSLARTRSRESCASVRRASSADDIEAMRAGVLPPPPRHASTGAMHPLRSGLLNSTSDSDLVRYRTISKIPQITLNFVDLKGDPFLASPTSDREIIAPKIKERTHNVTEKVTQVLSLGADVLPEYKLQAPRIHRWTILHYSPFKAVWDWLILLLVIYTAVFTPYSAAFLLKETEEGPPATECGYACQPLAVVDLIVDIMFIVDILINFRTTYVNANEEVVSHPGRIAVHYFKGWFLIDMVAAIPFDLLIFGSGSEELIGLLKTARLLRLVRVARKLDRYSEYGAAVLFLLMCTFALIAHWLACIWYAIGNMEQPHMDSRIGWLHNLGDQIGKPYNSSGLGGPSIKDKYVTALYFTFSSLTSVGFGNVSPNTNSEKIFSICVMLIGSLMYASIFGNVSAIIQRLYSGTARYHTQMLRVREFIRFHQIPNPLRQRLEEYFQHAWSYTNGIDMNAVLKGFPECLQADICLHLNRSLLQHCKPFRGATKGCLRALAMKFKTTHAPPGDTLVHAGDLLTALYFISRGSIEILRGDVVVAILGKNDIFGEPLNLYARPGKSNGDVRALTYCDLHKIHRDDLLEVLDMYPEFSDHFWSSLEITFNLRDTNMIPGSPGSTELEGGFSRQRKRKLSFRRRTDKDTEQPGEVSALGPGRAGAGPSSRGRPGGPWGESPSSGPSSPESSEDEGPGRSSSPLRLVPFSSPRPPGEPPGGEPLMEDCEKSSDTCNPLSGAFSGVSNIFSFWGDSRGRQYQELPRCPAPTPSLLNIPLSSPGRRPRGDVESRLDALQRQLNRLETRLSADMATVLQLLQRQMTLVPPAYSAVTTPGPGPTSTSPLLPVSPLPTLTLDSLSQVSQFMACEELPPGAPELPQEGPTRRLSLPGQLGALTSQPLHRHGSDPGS
Sequence of human GSK-3β (P49841 whole entry): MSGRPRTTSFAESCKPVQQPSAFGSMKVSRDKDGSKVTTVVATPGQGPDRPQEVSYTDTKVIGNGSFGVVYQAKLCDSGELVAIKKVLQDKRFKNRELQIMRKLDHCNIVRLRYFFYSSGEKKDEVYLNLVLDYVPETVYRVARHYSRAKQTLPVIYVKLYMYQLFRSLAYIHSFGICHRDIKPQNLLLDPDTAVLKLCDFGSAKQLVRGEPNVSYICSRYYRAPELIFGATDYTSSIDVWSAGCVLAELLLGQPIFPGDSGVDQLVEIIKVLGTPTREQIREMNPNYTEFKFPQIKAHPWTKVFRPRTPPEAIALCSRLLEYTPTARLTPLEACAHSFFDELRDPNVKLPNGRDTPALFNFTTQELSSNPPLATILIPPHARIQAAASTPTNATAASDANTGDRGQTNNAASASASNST

Row | IC50 (human GSK-3β) [nM] | Structure (SMILES) | IC50 (hERG ion channel) [nM] | hERG/GSK-3β Ratio (hERG ion channel)
1 | 17 | CC(C)Oc1cncc(-c2ccc3[nH]nc(C(=O)NCC4CCOC4)c3c2)c1 (centres unmarked) [Compound 4, 5-(5-Isopropoxypyridin-3-yl)-N-((tetrahydrofuran-3-yl)methyl)-1H-indazole-3-carboxamide] | 6200 | 365
2 | 16 | COCc1cncc(-c2ccc3[nH]nc(C(=O)NCC4CCS(=O)(=O)C4)c3c2)c1 (centres unmarked) [Compound 5] | > 100000 | 
3 | 17 | O=C(NC1CCS(=O)(=O)C1)c1n[nH]c2ccc(-c3cncc(CO)c3)cc12 (centres unmarked) [Compound 6, 5-(5-(Hydroxymethyl)pyridin-3-yl)-N-(1,1-dioxidotetrahydrothiophen-3-yl)-1H-indazole-3-carboxamide] | > 100000 | 
4 | 12 | CC(C)Oc1cncc(-c2ccc3[nH]nc(C(=O)NCC4CCS(=O)(=O)C4)c3c2)c1 (centres unmarked) [Compound 11] | 5400 | 450
5 | 436 | O=C(NCC1CCCCO1)c1n[nH]c2ccc(-c3cccc(F)c3F)cc12 (centres unmarked) [Compound 14, 5-(2,3-Difluorophenyl)-N-((tetrahydro-2H-pyran-2-yl)methyl)-1H-indazole-3-carboxamide] | > 100000 | 
6 | 23 | CN(C)Cc1cncc(-c2ccc3[nH]nc(C(=O)NCC4CCOCC4)c3c2)c1 [Compound 16, 5-(5-((Dimethylamino)methyl)pyridin-3-yl)-N-((tetrahydro-2H-pyran-4-yl)methyl)-1H-indazole-3-carboxamide] | 44000 | 1,913
7 | 17 | O=C(NCC1CCOCC1)c1n[nH]c2ccc(-c3cncc(CN4CCCC4)c3)cc12 [Compound 17, 5-(5-(Pyrrolidin-1-ylmethyl)pyridin-3-yl)-N-((tetrahydro-2H-pyran-4-yl)methyl)-1H-indazole-3-carboxamide] | 6700 | 394
8 | 140 | O=C(NCC1CCOCC1)c1n[nH]c2ccc(-c3cnccc3CN3CCCC3)cc12 [Compound 19, 5-(4-(Pyrrolidin-1-ylmethyl)pyridin-3-yl)-N-((tetrahydro-2H-pyran-4-yl)methyl)-1H-indazole-3-carboxamide] | 16000 | 114
9 | 18.5 | O=C(NCC1CCOCC1)c1n[nH]c2ccc(-c3cnccc3CN3CCOCC3)cc12 [Compound 20, 5-(4-(Morpholinomethyl)pyridin-3-yl)-N-((tetrahydro-2H-pyran-4-yl)methyl)-1H-indazole-3-carboxamide carboxamide] | 46000 | 2,487
10 | 220 | CN(C)Cc1ccncc1-c1ccc2[nH]nc(C(=O)NCC3CCOCC3)c2c1 [Compound 21, 5-(4-((Dimethylamino)methyl)pyridin-3-yl)-N-((tetrahydro-2H-pyran-4-yl)methyl)-1H-indazole-3-carboxamide] | 40000 | 182
11 | 120 | O=C(NCC1CCOCC1)c1n[nH]c2ccc(-c3cnccc3CN3CCNCC3)cc12 [Compound 24, 5-(4-(piperazin-1-ylmethyl)pyridin-3-yl)-N-((tetrahydro-2H-pyran-4-yl)methyl)-1H-indazole-3-carboxamide] | 93800 | 782
12 | 13 | O=C(NCC1CCOCC1)c1n[nH]c2ccc(-c3cncc(CN4CCOCC4)c3)cc12 [Compound 27, 5-(5-(morpholinomethyl)pyridin-3-yl)-N-((tetrahydro-2H-pyran-4-yl)methyl)-1H-indazole-3-carboxamide] | 3500 | 269
13 | 6 | CNCc1cncc(-c2ccc3[nH]nc(C(=O)NCC4CCOCC4)c3c2)c1 [Compound 28, 5-(5-((methylamino)methyl)pyridin-3-yl)-N-((tetrahydro-2H-pyran-4-yl)methyl)-1H-indazole-3-carboxamide] | > 100000 | 
